Assays:
Experiment in all cases: Test D controlled growth environment herbicide test, pre- and postemergence
Format in all cases: in vivo
[1] = system: barley, spring (spring barley, Hordeum vulgare)
Source text: (§1) Seeds of plant species selected from bluegrass (annual bluegrass, Poa annua), blackgrass (Alopecurus myosuroides), Canada thistle (Cirsium arvense), canarygrass (Phalaris minor), chickweed (common chickweed, Stellaria media), geranium, cutleaf (cutleaf geranium, Geranium dissectum), galium (catchweed bedstraw, Galium aparine), bromegrass, downy (downy bromegrass, Bromus tectorum), field poppy (Papaver rhoeas), field violet (Viola arvensis), foxtail, green (green foxtail, Setaria viridis), deadnettle (henbit deadnettle, Lamium amplexicaule), ryegrass, Italian (Italian ryegrass, Lolium multiflorum), kochia (Kochia scoparia), lambsquarters (Chenopodium album), oilseed rape (Brassica napus), pigweed (Amaranthus retroflexus), chamomile (scentless chamomile, Matricaria inodora), Russian thistle (Salsola kali), speedwell (bird's-eye speedwell, Veronica persica), barley, spring (spring barley, Hordeum vulgare), wheat, spring (spring wheat, Triticum aestivum), buckwheat, wild (wild buckwheat, Polygonum convolvulus), mustard, wild (wild mustard, Sinapis arvensis), oat, wild (wild oat, Avena fatua), radish, wild (wild radish, Raphanus raphanistrum), windgrass (Apera spica-venti), barley, winter (winter barley, Hordeum vulgare), and wheat, winter (winter wheat, Triticum aestivum) were planted into a silt loam soil and treated preemergence with test chemicals formulated in a non-phytotoxic solvent mixture which included a surfactant.
(§2) At the same time, these species were planted in pots containing Redi-Earth® planting medium (Scotts Company, 14111 Scottslawn Road, Marysville, Ohio 43041) comprising spaghnum peat moss, vermiculite, wetting agent and starter nutrients and treated with postemergence applications of the test chemicals formulated in the same manner. Plants ranged in height from 2 to 18 cm (1- to 4-leaf stage). Treated plants and controls were maintained in a controlled growth environment for 14 to 21 d after which time all species were compared to controls and visually evaluated. Plant response ratings, summarized in Table D, are based on a scale of 0 to 100 where 0 is no effect and 100 is complete control. A dash (-) response means no test result.

[2] = system: barley, winter (winter barley, Hordeum vulgare)
Source text: as §1, §2

[3] = system: blackgrass (Alopecurus myosuroides)
Source text: as §1, §2

[4] = system: bluegrass (annual bluegrass, Poa annua)
Source text: as §1, §2

[5] = system: field poppy (Papaver rhoeas)
Source text: as §1, §2

kochia (Kochia scoparia) = system: kochia (Kochia scoparia)
Source text: as §1, §2

[6] = system: mustard, wild (wild mustard, Sinapis arvensis)
Source text: as §1, §2

[7] = system: oat, wild (wild oat, Avena fatua)
Source text: as §1, §2

[8] = system: pigweed (Amaranthus retroflexus)
Source text: as §1, §2

[9] = system: radish, wild (wild radish, Raphanus raphanistrum)
Source text: as §1, §2

[10] = system: speedwell (bird's-eye speedwell, Veronica persica)
Source text: as §1, §2

[11] = system: wheat, spring (spring wheat, Triticum aestivum)
Source text: as §1, §2

[12] = Postemergence, 31 g ai/ha, scale 0 to 100 (0 no effect, 100 complete control)
[13] = Postemergence, 125 g ai/ha, visual rating on scale 0 (no effect) to 100 (complete control), 14 to 21 d
[14] = Postemergence, 250 g ai/ha, scale 0 to 100 (0 no effect, 100 complete control)
[15] = Preemergence, 62 g ai/ha, scale 0 to 100 (0 no effect, 100 complete control)
[16] = Preemergence, 125 g ai/ha, scale 0 to 100 (0 no effect, 100 complete control)
[17] = Preemergence, 250 g ai/ha, scale 0 to 100, 0 no effect, 100 complete control
[18] = postemergence, 62 g ai/ha, scale 0 to 100, 0 no effect, 100 complete control

Cc1nn(C)c(=O)c(-c2cccc3ccccc23)c1O [Compound 11, 5-hydroxy-2,6-dimethyl-4-(1-naphthalenyl)-3(2H)-pyridazinone]
55: Plant response rating, Blackgrass [3, 16] | Bluegrass plant response rating [4, 17]
80: Plant response rating, Field Poppy [5, 13] | Plant response rating, Oat, Wild [7, 16]
100: Plant response rating, Field Poppy [5, 14] | Plant response rating, Field Poppy [5, 16] | Plant response rating, Field Poppy [5, 17] | Plant response rating, Kochia (kochia (Kochia scoparia); [14]) | Plant response rating, Mustard, Wild [6, 17] | Plant response rating, Pigweed [8, 14] | Plant response rating, Pigweed [8, 17] | Plant response rating, Speedwell [10, 13] | Plant response rating, Speedwell [10, 14] | Plant response rating, Speedwell [10, 17] | Plant response rating, Speedwell [10, 18]
65: Mustard, Wild plant response rating [6, 12] | Plant response rating, Pigweed [8, 18]
25: Plant response rating, Barley, Winter [2, 13] | Blackgrass plant response rating [3, 12] | Plant response rating, Radish, Wild [9, 17] | Plant response rating, Wheat, Spring [11, 13] | Plant response rating, Wheat, Spring [11, 14] | Plant response rating, Wheat, Spring [11, 16]
50: Radish, Wild plant response rating [9, 12]
35: Field Poppy plant response rating [5, 12] | Pigweed plant response rating [8, 12] | Plant response rating, Wheat, Spring [11, 17]
60: Kochia plant response rating (kochia (Kochia scoparia); [12]) | Plant response rating, Radish, Wild [9, 13]
40: Plant response rating, Barley, Winter [2, 14] | Plant response rating, Blackgrass [3, 18] | Plant response rating, Kochia (kochia (Kochia scoparia); [15]) | Oat, Wild plant response rating [7, 12]
30: Plant response rating, Blackgrass [3, 15] | Plant response rating, Bluegrass [4, 16] | Plant response rating, Radish, Wild [9, 18]
95: Plant response rating, Kochia (kochia (Kochia scoparia); [17]) | Plant response rating, Mustard, Wild [6, 14] | Plant response rating, Pigweed [8, 13]
5: Plant response rating (scale of 0 to 100), Barley, Spring ([1]; Preemergence, 31 g ai/ha) | Plant response rating, Barley, Spring [1, 15] | Plant response rating (scale of 0 to 100), Barley, Winter ([2]; Preemergence, 31 g ai/ha) | Plant response rating, Barley, Winter [2, 15] | Plant response rating, Barley, Winter [2, 16] | Plant response rating (scale of 0 to 100), Blackgrass ([3]; Preemergence, 31 g ai/ha) | Bluegrass plant response rating [4, 12] | Plant response rating, Bluegrass [4, 13] | Plant response rating, Bluegrass [4, 18] | Plant response rating (scale of 0 to 100), Wheat, Spring ([11]; Preemergence, 31 g ai/ha)
0: Plant response rating, Barley, Spring [1, 12] | Plant response rating, Barley, Spring [1, 18] | Plant response rating (scale of 0 to 100), Mustard, Wild ([6]; Preemergence, 31 g ai/ha) | Plant response rating (scale of 0 to 100), Pigweed ([8]; Preemergence, 31 g ai/ha) | Plant response rating, Pigweed [8, 15] | Speedwell plant response rating [10, 12] | Plant response rating (scale of 0 to 100), Speedwell ([10]; Preemergence, 31 g ai/ha)
85: Plant response rating, Field Poppy [5, 18] | Plant response rating, Kochia (kochia (Kochia scoparia); [13]) | Plant response rating, Oat, Wild [7, 13] | Plant response rating, Oat, Wild [7, 17] | Plant response rating, Radish, Wild [9, 14] | Plant response rating, Speedwell [10, 16]
15: Barley, Spring plant response rating [1, 17] | Plant response rating, Bluegrass [4, 14] | Plant response rating, Bluegrass [4, 15] | Plant response rating (scale of 0 to 100), Oat, Wild ([7]; Preemergence, 31 g ai/ha) | Plant response rating, Radish, Wild [9, 15] | Plant response rating, Speedwell [10, 15] | Wheat, Spring plant response rating [11, 12] | Plant response rating, Wheat, Spring [11, 15] | Plant response rating, Wheat, Spring [11, 18]
10: Plant response rating, Barley, Spring [1, 13] | Plant response rating, Barley, Spring [1, 14] | Plant response rating, Barley, Spring [1, 16] | Plant response rating (scale of 0 to 100), Bluegrass ([4]; Preemergence, 31 g ai/ha) | Plant response rating (scale of 0 to 100), Kochia (kochia (Kochia scoparia); Preemergence, 31 g ai/ha) | Plant response rating (scale of 0 to 100), Radish, Wild ([9]; Preemergence, 31 g ai/ha)
70: Plant response rating, Blackgrass [3, 13] | Plant response rating, Blackgrass [3, 14] | Plant response rating, Mustard, Wild [6, 18] | Plant response rating, Oat, Wild [7, 15]
75: Blackgrass plant response rating [3, 17] | Plant response rating (scale of 0 to 100), Field Poppy ([5]; Preemergence, 31 g ai/ha) | Plant response rating, Field Poppy [5, 15] | Plant response rating, Kochia (kochia (Kochia scoparia); [16]) | Plant response rating, Kochia (kochia (Kochia scoparia); [18]) | Plant response rating, Mustard, Wild [6, 13] | Plant response rating, Mustard, Wild [6, 16] | Plant response rating, Oat, Wild [7, 18]
98: Plant response rating, Oat, Wild [7, 14] | Plant response rating, Pigweed [8, 16]
20: Plant response rating, Barley, Winter [2, 12] | Barley, Winter plant response rating [2, 17] | Plant response rating, Barley, Winter [2, 18] | Plant response rating, Mustard, Wild [6, 15] | Plant response rating, Radish, Wild [9, 16]

— patent publication US10597388B2, “Pyridazinone herbicides” (FMC CORPORATION, priority 2014, dated 2020)
